This note sets out measurements from US20230192700A1, “PYRAZOLOPYRAZINES ACTING ON CANCERS VIA INHIBITION OF CDK12” (Bayer Aktiengesellschaft, priority 2020, published 2023).

For this assay, the target named is T1, CDK12/CyclinK (Homo sapiens, UniProt Q9NYV4).
T1 construct: His-CDK12 (aa Q696-S1082); made in house; host or cells: Hi-5 insect cells (baculovirus co-infection with CycK and yeast CAK1)
T1 sequence (Q9NYV4 with tags, fused parts or gaps): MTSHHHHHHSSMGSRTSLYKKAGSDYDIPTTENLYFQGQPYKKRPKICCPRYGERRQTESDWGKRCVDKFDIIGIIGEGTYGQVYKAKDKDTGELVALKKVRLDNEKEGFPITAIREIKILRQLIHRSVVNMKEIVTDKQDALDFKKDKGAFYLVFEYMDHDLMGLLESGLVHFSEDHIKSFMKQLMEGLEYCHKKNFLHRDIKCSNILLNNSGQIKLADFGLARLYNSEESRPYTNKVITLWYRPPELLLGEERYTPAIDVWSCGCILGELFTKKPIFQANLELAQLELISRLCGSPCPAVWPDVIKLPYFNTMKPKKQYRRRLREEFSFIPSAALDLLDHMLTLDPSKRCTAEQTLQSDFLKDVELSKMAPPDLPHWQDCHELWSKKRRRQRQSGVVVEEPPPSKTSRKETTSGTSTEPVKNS
T1 sequence (O75909 with tags, fused parts or gaps partner limits assumed): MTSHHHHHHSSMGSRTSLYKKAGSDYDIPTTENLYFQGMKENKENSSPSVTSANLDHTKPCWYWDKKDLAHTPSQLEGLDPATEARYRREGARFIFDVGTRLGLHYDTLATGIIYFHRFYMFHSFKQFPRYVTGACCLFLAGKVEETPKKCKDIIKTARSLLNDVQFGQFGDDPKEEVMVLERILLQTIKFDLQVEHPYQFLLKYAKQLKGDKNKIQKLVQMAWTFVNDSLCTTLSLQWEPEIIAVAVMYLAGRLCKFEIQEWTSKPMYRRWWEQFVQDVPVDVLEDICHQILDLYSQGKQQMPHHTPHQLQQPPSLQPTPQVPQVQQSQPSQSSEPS
As to the kind of experiment: CDK12/CycK high ATP kinase assay (TR-FRET). The format is biochemical. The settings on record: 2 mM ATP (high ATP); median; read-out: CDK12/CyclinK, 2 mM ATP (high ATP), IC50 - [mol/l] (median). The source says: 2.2 CDK12/CycK high ATP Kinase Assay
In the context of the present invention, the term “IC50 CDK12 hATP” refers to the ICso values obtained according to the assay described in this section (2.2) herein below, i.e. the IC50 values for the inhibition of CDK12 at high ATP.
CDK12/CycK -inhibitory activity of compounds of the present invention at 2 millimol/L adenosine-tri-phosphate (ATP) was quantified employing the TR-FRET (TR-FRET=Time Resolved Fluorescence Energy Transfer) based CDK12/CycK activity inhibition assay as described in the following paragraphs.
A complex of human recombinant CDK12 and human recombinant CycK (both N-terminally His-tagged, expression and purification as described above) was used as enzyme. As substrate for the kinase reaction biotinylated peptide biotin-Ahx-KFELLPTPPLSPSRRSGL (C-terminus in amid form) was used which can be purchased e.g. form the company Biosyntan (Berlin-Buch, Germany).
For the assay 50 nanoL of a 100 fold concentrated solution of the test compound in DMSO was pipetted into either a black low volume 384 well microtiter plate or a black 1536 well microtiter plate (both Greiner Bio-One, Frickenhausen, Germany), 2 microL of a solution of CDK12/CycK in aqueous assay buffer [25 millimol/L HEPES pH 7.5, 20 millimol/L MgCl2, 5 millimol/L β-glycerophosphate, 2 millimol/L EGTA, 1.0 millimol/L dithiothreitol, 0.01% (v/v) Nonidet-P40 (Sigma), 0.01% (w/v) bovine serum albumin] were added and the mixture was incubated for 15 min at 22° C. to allow pre-binding of the test compounds to the enzyme before the start of the kinase reaction. Then the kinase reaction was started by the addition of 3 microL of a solution ATP (3.33 millimol/L=>final conc. in the 5 microL assay volume is 2 millimol/L) and substrate (1.67 micromol/L=>final conc. in the 5 microL assay volume is 1 micromol/L) in assay buffer and the resulting mixture was incubated for a reaction time of 60 min at 22° C. The concentration of CDK12/CycK was adjusted depending of the activity of the enzyme lot and was chosen appropriate to have the assay in the linear range, typical concentrations were about 0.75 nanomol/L. The reaction was stopped by the addition of 3 microL of a solution of TR-FRET detection reagents (125 nanomol/L streptavidine-XL665 [Cisbio Bioassays, Codolet, France] and 0.67 nanomol/L anti-Phospho-c-Myc (Ser 62) (E1J4K)-antibody from Cell Signalling [#13748] and 2 nanomol/L LANCE EU-W1024 labeled anti-rabbit IgG antibody [Perkin-Elmer, product no. 0083]) in an aqueous EDTA-solution (133 millimol/L EDTA, 0.27% (w/v) bovine serum albumin in 66.7 millimol/L HEPES pH 7.5).
The resulting mixture was incubated 1 h at 22° C. to allow the formation of complex between the phosphorylated biotinylated peptide and the detection reagents. Subsequently the amount of phosphorylated substrate was evaluated by measurement of the resonance energy transfer from the Eu-chelate to the streptavidine-XL. Therefore, the fluorescence emissions at 620 nm and 665 nm after excitation at 350 nm was measured in a TR-FRET reader, e.g. a Pherastar FS (BMG Labtechnologies, Offenburg, Germany) or a Viewlux (Perkin-Elmer). The ratio of the emissions at 665 nm and at […] was taken as the measure for the amount of phosphorylated substrate. The data were normalised (enzyme reaction without inhibitor=0% inhibition, all other assay components but no enzyme=100% inhibition).
Background: Time-resolved FRET reads energy transfer from a long-lived donor to a nearby acceptor.
On to `CN1CCC(n2nc(NCc3nc4c(C(F)(F)F)cccc4[nH]3)c3ncc(C4CC4)nc32)CC1` [Example 7, 6-cyclopropyl-1-(1-methylpiperidin-4-yl)-N-{[4-(trifluoromethyl)-1H-benzimidazol-2-yl]methyl}-1H-pyrazolo[3,4-b]pyrazin-3-amine], for which the IC50 was over 20 µM.

Take `Cc1cccc2[nH]c(CNc3nn(C4CCN(C)CC4)c4nc(C5CC5)cnc34)nc12` [Example 8, 6-cyclopropyl-N-[(4-methyl-1H-benzimidazol-2-yl)methyl]-1-(1-methylpiperidin-4-yl)-1H-pyrazolo[3,4-b]pyrazin-3-amine]: the IC50 is over 20 µM. On to `CN1CCC(n2nc(NCc3nc4c(F)c(F)ccc4[nH]3)c3ncc(C4CC4)nc32)CC1` [Example 9, 6-cyclopropyl-N-[(4,5-difluoro-1H-benzimidazol-2-yl)methyl]-1-(1-methylpiperidin-4-yl)-1H-pyrazolo[3,4-b]pyrazin-3-amine], for which the IC50 was over 20 µM.

With `CC(C)(C)OC(=O)N1CCC(n2nc(NCc3nc4ccccc4[nH]3)c3ncc(C4CC4)nc32)CC1` [Example 11, tert-butyl 4-(3-{[(1H-benzimidazol-2-yl)methyl]amino}-6-cyclopropyl-1H-pyrazolo[3,4-b]pyrazin-1-yl)piperidine-1-carboxylate], the IC50 is over 20 µM. Then `c1ccc2[nH]c(CNc3nn(C4CCNCC4)c4nc(C5CC5)cnc34)nc2c1` [Example 12, N-[(1H-benzimidazol-2-yl)methyl]-6-cyclopropyl-1-(piperidin-4-yl)-1H-pyrazolo[3,4-b]pyrazin-3-amine], with over 20 µM.

For the compound `O=CO.c1ccc(-n2nc(NCc3nc4ccccc4[nH]3)c3ncc(C4CC4)nc32)cc1` [Example 13, formic acid—N-[(1H-benzimidazol-2-yl)methyl]-6-cyclopropyl-1-phenyl-1H-pyrazolo[3,4-b]pyrazin-3-amine (1/1)], the IC50 was over 20 µM.

For `CC(C)n1nc(NCc2nc3ccccc3[nH]2)c2ncc(C3CC3)nc21` [Example 14, N-[(1H-benzimidazol-2-yl)methyl]-6-cyclopropyl-1-(propan-2-yl)-1H-pyrazolo[3,4-b]pyrazin-3-amine], the IC50 is over 20 µM.

As for `Cn1nc(NCc2nc3ccccc3[nH]2)c2ncc(C3CC3)nc21` [Example 15, N-[(1H-benzimidazol-2-yl)methyl]-6-cyclopropyl-1-methyl-1H-pyrazolo[3,4-b]pyrazin-3-amine], the IC50 is over 20 µM.

As for `c1ccc2[nH]c(CNc3nn(C4CCOCC4)c4nc(C5CC5)cnc34)nc2c1` [Example 16, N-[(1H-benzimidazol-2-yl)methyl]-6-cyclopropyl-1-(oxan-4-yl)-1H-pyrazolo[3,4-b]pyrazin-3-amine], the IC50 is over 20 µM. The figure for `CN1CCC(n2nc(NCc3nc4cc(Cl)c(Cl)cc4[nH]3)c3ncc(C4CC4)nc32)CC1` [Example 19, 6-cyclopropyl-N-[(5,6-dichloro-1H-benzimidazol-2-yl)methyl]-1-(1-methylpiperidin-4-yl)-1H-pyrazolo[3,4-b]pyrazin-3-amine] is over 20 µM; for `CN1CCC(n2nc(NCc3nc4c(Br)cccc4[nH]3)c3ncc(C4CC4)nc32)CC1` [Example 20, N-[(4-bromo-1H-benzimidazol-2-yl)methyl]-6-cyclopropyl-1-(1-methylpiperidin-4-yl)-1H-pyrazolo[3,4-b]pyrazin-3-amine] it is over 20 µM. In the case of `Cc1c(Cl)ccc2[nH]c(CNc3nn(C4CCN(C)CC4)c4nc(C5CC5)cnc34)nc12` [Example 21, N-[(5-chloro-4-methyl-1H-benzimidazol-2-yl)methyl]-6-cyclopropyl-1-(1-methylpiperidin-4-yl)-1H-pyrazolo[3,4-b]pyrazin-3-amine], the IC50 was over 20 µM. `CN1CCC(n2nc(NCc3nc4cc(Cl)ccc4[nH]3)c3ncc(C4CC4)nc32)CC1` [Example 22, N-[(5-chloro-1H-benzimidazol-2-yl)methyl]-6-cyclopropyl-1-(1-methylpiperidin-4-yl)-1H-pyrazolo[3,4-b]pyrazin-3-amine]: the IC50 is over 20 µM.

On to `Fc1cccc2[nH]c(CNc3nn(C4CCOCC4)c4nc(C5CC5)cnc34)nc12` [Example 23, 6-cyclopropyl-N-[(4-fluoro-1H-benzimidazol-2-yl)methyl]-1-(oxan-4-yl)-1H-pyrazolo[3,4-b]pyrazin-3-amine], for which the IC50 amounted to 12.3 µM. The figure for `COc1cccc2[nH]c(CNc3nn(C4CCOCC4)c4nc(C5CC5)cnc34)nc12` [Example 24, 6-cyclopropyl-N-[(4-methoxy-1H-benzimidazol-2-yl)methyl]-1-(oxan-4-yl)-1H-pyrazolo[3,4-b]pyrazin-3-amine] is 18.2 µM; for `CN1CCC(n2nc(NCc3nc4cc(C(F)(F)F)ccc4[nH]3)c3ncc(C4CC4)nc32)CC1` [Example 25, 6-cyclopropyl-1-(1-methylpiperidin-4-yl)-N-{[5-(trifluoromethyl)-1H-benzimidazol-2-yl]methyl}-1H-pyrazolo[3,4-b]pyrazin-3-amine] it is 17.3 µM. Consider `Cc1c(F)ccc2[nH]c(CNc3nn(C4CCN(C)CC4)c4nc(C5CC5)cnc34)nc12` [Example 26, 6-cyclopropyl-N-[(5-fluoro-4-methyl-1H-benzimidazol-2-yl)methyl]-1-(1-methylpiperidin-4-yl)-1H-pyrazolo[3,4-b]pyrazin-3-amine], for which the IC50 was over 20 µM.

For `CN1CCC(n2nc(NCc3nc4cc(SC(F)(F)F)ccc4[nH]3)c3ncc(C4CC4)nc32)CC1` [Example 27, 6-cyclopropyl-1-(1-methylpiperidin-4-yl)-N-({5-[(trifluoromethyl)sulfanyl]-1H-benzimidazol-2-yl}methyl)-1H-pyrazolo[3,4-b]pyrazin-3-amine], the IC50 stood at 2.02 µM. Consider `Cc1ccc2[nH]c(CNc3nn(C4CCN(C)CC4)c4nc(C5CC5)cnc34)nc2c1C` [Example 28, 6-cyclopropyl-N-[(4,5-dimethyl-1H-benzimidazol-2-yl)methyl]-1-(1-methylpiperidin-4-yl)-1H-pyrazolo[3,4-b]pyrazin-3-amine], for which the IC50 was over 20 µM. Consider `CN1CCC(n2nc(NCc3nc4cc(Cl)c(F)cc4[nH]3)c3ncc(C4CC4)nc32)CC1` [Example 29, N-[(5-chloro-6-fluoro-1H-benzimidazol-2-yl)methyl]-6-cyclopropyl-1-(1-methylpiperidin-4-yl)-1H-pyrazolo[3,4-b]pyrazin-3-amine], for which the IC50 was over 20 µM. The figure for `CN1CCC(n2nc(NCc3nc4cc(F)c(F)cc4[nH]3)c3ncc(C4CC4)nc32)CC1` [Example 30, 6-cyclopropyl-N-[(5,6-difluoro-1H-benzimidazol-2-yl)methyl]-1-(1-methylpiperidin-4-yl)-1H-pyrazolo[3,4-b]pyrazin-3-amine] is over 20 µM; for `CN1CCC(n2nc(NCc3nc4c(Cl)c(F)ccc4[nH]3)c3ncc(C4CC4)nc32)CC1` [Example 31, N-[(4-chloro-5-fluoro-1H-benzimidazol-2-yl)methyl]-6-cyclopropyl-1-(1-methylpiperidin-4-yl)-1H-pyrazolo[3,4-b]pyrazin-3-amine] it is over 20 µM; for `Fc1ccc2[nH]c(CNc3nn(C4CCOCC4)c4nc(C5CC5)cnc34)nc2c1F` [Example 32, 6-cyclopropyl-N-[(4,5-difluoro-1H-benzimidazol-2-yl)methyl]-1-(oxan-4-yl)-1H-pyrazolo[3,4-b]pyrazin-3-amine] it is 13.8 µM. Then `Cc1cccc2[nH]c(CNc3nn(C4CCOCC4)c4nc(C5CC5)cnc34)nc12` [Example 33, 6-cyclopropyl-N-[(4-methyl-1H-benzimidazol-2-yl)methyl]-1-(oxan-4-yl)-1H-pyrazolo[3,4-b]pyrazin-3-amine], with over 20 µM.
